In test [1] the test system is soleus muscle. Nature of the test: Masoprocol effect on CGRP1-evoked NEFA and triglyceride contents in soleus muscle from high fat-fed rats. Particulars: 50 μM masoprocol with 100 nM or 1 pM CGRP1. The format is cell-based, rat. An excerpt:
Masoprocol, (nordihydroguaiaretic acid), is a lipoxygenase inhibitor, that has been identified as the active component of Creosote bush extracts. Oral administration of this compound lowers serum NEFA and triglyceride concentrations in rats with fructose-induced hypertriglyceridemia (Gowri et al. 2000, Am. J. Physiol. 279: E593-E600), and decrease blood glucose and triglyceride concentrations in a fat-fed/streptozotocin rat model (Reed et al. 1999, Diabetologia 42: 102-106).

The target of test [2] is T1, murine ramp 1/C1ins− receptor (Mus musculus, UniProt Q60755+Q9WTJ5).
T1 construct: expressed in transfected cells; host or cells: L6 myoblasts (ATCC), transient co-transfection of pcDNA3.1 plasmids
T1 sequence (Q60755 42-496 isoform Q60755-2 limits assumed): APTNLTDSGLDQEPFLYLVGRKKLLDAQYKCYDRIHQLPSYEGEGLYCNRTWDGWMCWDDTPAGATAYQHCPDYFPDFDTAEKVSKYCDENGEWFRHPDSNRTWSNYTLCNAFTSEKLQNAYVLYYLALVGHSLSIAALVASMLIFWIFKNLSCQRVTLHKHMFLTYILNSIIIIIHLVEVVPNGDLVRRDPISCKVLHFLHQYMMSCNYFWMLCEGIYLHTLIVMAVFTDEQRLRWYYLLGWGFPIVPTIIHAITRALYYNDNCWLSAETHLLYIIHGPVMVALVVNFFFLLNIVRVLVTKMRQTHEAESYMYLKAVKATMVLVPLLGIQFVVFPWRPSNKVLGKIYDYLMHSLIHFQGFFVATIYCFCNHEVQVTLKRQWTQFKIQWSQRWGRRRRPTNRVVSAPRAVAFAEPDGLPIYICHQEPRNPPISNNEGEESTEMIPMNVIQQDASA
T1 sequence (Q9WTJ5 27-148 partner): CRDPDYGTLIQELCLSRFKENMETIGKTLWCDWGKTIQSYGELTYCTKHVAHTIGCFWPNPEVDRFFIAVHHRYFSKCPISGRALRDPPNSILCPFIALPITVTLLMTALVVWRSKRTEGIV
Nature of the test: Radioligand binding and displacement of [3H]amylin in L6 myoblasts co-transfected with murine ramp 1 and C1ins−. Particulars: for competition with amylin for binding to co-transfected cells: displacement of [3H]amylin, FIG. 9A. Background: Loss of bound radioactivity is the signal in a displacement assay; it reports binding, not function.
Procedure: Transfection of L6 myoblasts and cos-7 cells, and analysis of radioligand binding. L6 myoblasts and cos-7 cells were obtained from ATCC. Both cell lines were cultered in Dulbecco's modified Eagle's medium (DMEM; Gibco/BRL, high glucose) supplemented with 10% fetal calf serum (Gibco/BRL, Gaithersburg, Md.), L-glutamine (2 mM), penicillin (100 U/ml; Sigma), streptomycin (100 mg/ml; Sigma), saline (0.85%), under 5% CO2/95% air at 37° C. The day before transfection, cells were trypsinised and seeded into six-well plates at a density of 2.9×10^5 cells/well in the same medium. For transfection, cells were incubated with a mixture comprising 1 μg each of Qiagen-purified (Qiagen, Valencia, Calif.) plasmids containing C1ins− with either ramp 1 or ramp 3, and Fugene reagent (6 μl; Boehringer Mannheim) in Opti-Mem I medium (Gibco/BRL). The complex was added with serum to cells, which were incubated for a further 48 h.
For binding experiments, radioligand (either alone or together with stated final concentrations of non-radiolabeled ligands) was dissolved in DMEM containing 0.1% BSA (binding buffer) for 1 h before binding experiments were performed. […] Cells were washed twice with this buffer, then incubated with 1 ml of the same plus radioligand for 4 h at room temperature (21° C.).

Test [3] relates to soleus muscle. Description: Total glycogen content in isolated incubated soleus muscle. The format is cell-based, rat. Particulars: isolated rat soleus muscle. The method, then:
(§1) Soleus muscle preparation. All experiments were performed according to protocols approved by the Institutional Animal Ethics Committee. 5-6 week-old male Wistar rats (160 g) were kept on a 12:12-h light/dark cycle, and fed and watered ad libitum. Animals were anaesthetised with 50 mg/kg Nembutal (pentobarbitone sodium), then sacrificed by cervical dislocation. Soleus muscles were dissected under oxygenated KHB (118 mM NaCl, 4.75 mM KCl, 1.2 mM MgSO4, 24.8 mM NaHCO3, 1.2 mM KH2PO4, 2.54 mM CaCl2, 10 mM glucose, pH 7.4) and teased into halves, then incubated as described below.
Total glycogen content was measured in muscle strips by lyophilization followed by hydrolysis of glycogen to D-glucose with amyloglucosidase (Sigma) 20 U/100 ml in 0.2 M sodium acetate/acetic acid buffer, pH 4.8, and expressed as μmol ‘glucosyl’ units/g dry muscle weight. Free glucose in supernatant solutions was measured with a glucose/lactate analyzer (YSI 2300STAT, Yellow Springs Corporation) using D-glucose oxidase immobilized enzyme chemistry.
(§2) Data analysis. One way ANOVA, Dunnett's Multiple Comparisons Test, and unpaired Student's t-tests were used to calculate the statistical significance of differences, as appropriate. Dose-response curves were fitted to a sigmoidal dose-response algorithm, as follows: Y=minimum+(maximum−minimum)/([…] log ^(EC50^−X), for 2-DOG-uptake; and by a four parameter logistic model, Y=minimum+(maximum−minimum)/(1+10 log ^(EC50^−X)Hill-Coefficient) for total glycogen and [^14C]glucose incorporation. Calculations were performed using Prism v2.0 (GraphPad Software, San Diego, Calif.) to derive values for half-maximal effective concentration (EC50). Displacement curves derived for competition of bound radioligand with cold ligand in transfected cells were calculated according to a one site competition fit using Prism v2.0.

The subject of test [4] is soleus muscle. Nature of the test: Incorporation of D[14C(U)]glucose into glycogen in isolated incubated soleus muscle. The format is cell-based, rat. To be noted: isolated rat soleus muscle. Here is the method: as §1
Measurement of glycogen metabolism in isolated, incubated soleus muscle. […]. Glycogen was precipitated overnight at −20° C. with 96% ethanol (1.2 ml), followed by centrifugation at 8,000 g (15 min, 4° C.). Pellets were washed twice with the same amount of ethanol then dissolved in water (0.6 ml). Aliquots (0.3 ml) were analyzed for D[^14C(U)] glucose content by liquid scintillation spectrometry.
as §2

Test [5] relates to soleus muscle. Nature of the test: Lipid metabolites (free fatty acid, glycerol, triglyceride; enzymatic analysis) in isolated soleus muscle from normally fed rats. The format is cell-based, rat. Particulars: 1 h.
The subject of test [6] is soleus muscle. Description: cAMP content of isolated soleus muscle from normal fed rats. The format is cell-based, rat. Particulars: normal fed; 10-fold molar excess of antagonist; CGRP alone 6.9±0.8. Here is the method:
as §1
(§3) For the measurement of cAMP in muscle, isolated soleus strips were incubated with stated concentrations of peptides, then lyophilized and deproteinized. Each strip was placed in 400 μl of 0.5 M HClO4 with 5 mM EDTA (phosphodiesterase inhibitor) and sonicated three times in 20 s bursts. Tubes were heated for 3-5 min in boiling water to coagulate protein, then centrifuged (12,000 g, 4° C., 2 min). Supernatant (300 μl) was taken and the pH adjusted to 7.0 with 75 μl of 2 M NH4OH. The samples were refrigerated (4° C., 2 h) to precipitate proteins, then centrifuged under the same conditions as above and 50 μl taken for cAMP measurement.

Test [7] deals with soleus muscle. Description: cAMP content of isolated soleus muscle from high fat-fed rats. The format is cell-based, rat. The method, then: as §1, §3
The subject of test [8] is Wistar rats. Nature of the test: Serum hormones and blood metabolites following acute CGRP infusion in anaesthetised normal-fed rats. The format is in vivo, rat. To be noted: end vs commencement of infusion. The method, then: (§4) Surgery. Experiments were performed on male Wistar rats. Animals were randomly assigned to experimental groups as outlined below. Induction and maintenance of surgical anesthesia was by 3-5% halothane and 2L oxygen. An initial blood sample was taken from a tail artery for measurement of baseline levels of blood glucose and lactate, electrolyte, acid base and oxygen status and serum levels of free fatty acids, triglyceride and cholesterol. Immediately following this, the trachea was cannulated and the animal ventilated at 60-70 breaths.min-1 with air supplemented with O2. The respiratory rate and end-tidal pressure (10-15 cmH2O) were adjusted to maintain end-tidal CO2 at 35-40 mmHg. Body temperature was maintained at 37° C. throughout surgery and the experiment by a heating pad. The carotid artery and jugular vein were cannulated with a solid-state blood pressure transducer and a saline filled PE 50 catheter respectively. For the antagonist infusion studies, surgery was similar to above with the alteration being that both the carotid artery and jugular vein were cannulated with saline filled PE 50 catheters. Fluids (saline or hormone dissolved in saline) were delivered to the jugular vein with a Y-connector to join the two lines. The carotid artery line was connected to a blood pressure transducer. Blood samples were taken from this line at time zero (baseline reading), 30 minutes and every 20 minutes until the end of the experiment at 90 minutes.
Infusion. […] Blood glucose measurements were taken from tail capillaries at 5-minute intervals throughout the duration of the experiment. At the end of the infusion a terminal blood sample was taken by cardiac puncture and analysed as per the basal sample and also for various metabolites and hormones. Serum and plasma samples were stored at −80° C. until future analysis. Animals were killed by cervical dislocation and harvested tissues (brain, liver, kidney, soleus muscle, extensor digitorum longus muscle, left ventricle, retroperitoneal and epididymal fat pads) snap frozen in liquid N2 and stored at −80° C. until future analysis.

Test [9] relates to Wistar rats. Description: Tissue free fatty acid and triglyceride content following infusion in normal-fed rats. The format is in vivo, rat. Here is the method:
as §4
Infusion. […] Blood glucose measurements were taken from tail capillaries at 5-minute intervals throughout the duration of the experiment. At the end of the infusion a terminal blood sample was taken by cardiac puncture and analysed as per the basal sample and also for various metabolites and hormones. Serum and plasma samples were stored at −80° C. until future analysis. Animals were killed by cervical dislocation and harvested tissues (brain, liver, kidney, soleus muscle, extensor digitorum longus muscle, left ventricle, retroperitoneal and epididymal fat pads) snap frozen in liquid N2 and stored at −80° C. until future analysis. For the antagonist studies, the protocols was the same as above with the following changes: Infusion was a combination of antagonist, CGRP or saline.

Where no end group is shown, it is not given here.

`CC(Cc1ccc(O)c(O)c1)C(C)Cc1ccc(O)c(O)c1` (stereo not shown) [masoprocol, nordihydroguaiaretic acid]: in the test with soleus muscle [1], the “effect on CGRP1-evoked NEFA elevation” value is given as “completely reversed NEFA elevation” and the “effect on CGRP1-evoked decrements in triglyceride content” value is “completely reversed decrements in soleus triglyceride content”.
Regarding “rat calcitonin (CGNLSTCMLGTYTQDLNKFHTFPQTSIGVGAP; ends and bridges not checked; cysteine pairing not given here) [calcitonin family peptide from Bachem]”, in test [2], the “competition with amylin for binding to co-transfected cells” value is “competed only very weakly”.
As for salmon calcitonin, the “specific binding of [3H]radioligand to L6 myoblasts co-transfected with ramp 1 and C1ins−” value in test [2] (10 nM radioligand, FIG. 8D) is recorded as “significant increases in specific binding”. For the same compound, the EC50 in the test with soleus muscle [3] (absence of insulin) came out at 1.7 nM; in the test with soleus muscle [3] (human insulin 23.7 nM), 0.6 nM; in the test on soleus muscle [4] (absence of insulin) it was 0.1 nM; with soleus muscle [4] (human insulin 23.7 nM), 0.9 nM.
As to Human adrenomedullin, the “competition with amylin for binding to co-transfected cells” value in [2] was “competed only very weakly”.
Consider human CGRP1-(8-37) [CGRP-(8-37)], for which the “free fatty acid concentration in conjunction with 1 pM CGRP” value in the test with soleus muscle [5] (100 pM antagonist + 1 pM CGRP, CGRP alone 166±18) is given as 68±8 nmol/g. For the same compound, in the test on soleus muscle [5] (10 μM antagonist or maximally stimulating insulin (23.7 nM) + 100 nM CGRP, CGRP alone 334±52), the “free fatty acid content in conjunction with 100 nM CGRP” value was 90 ± 7 nmol/g. Also, the “free fatty acid content in conjunction with 100 nM amylin” value in the test on soleus muscle [5] (10 μM antagonist or maximally stimulating insulin (23.7 nM) + 100 nM amylin, amylin alone 216±26) came out at 65 ± 8 nmol/g. For the same compound, the “cAMP content with 100 nM CGRP plus antagonist” value with soleus muscle [6] was determined as 4.8 ± 0.2 pmol/mg. Besides, in the test with soleus muscle [7] (10-fold molar excess of antagonist), the “cAMP content with 100 nM CGRP1 plus antagonist” value came to 5.4 ± 0.4 pmol/mg. Also, the “cAMP content with 1 pM CGRP plus antagonist” value in the test on soleus muscle [7] (10-molar excess of antagonist, CGRP alone 8.6±0.4) is 4.7±0.5 pmol/mg. Moreover, in the test on Wistar rats [8] (CGRP 60 min, CGRP-(8-37) 90 min, control 0.2), the “Change in [serum] Triglyceride” value turned out to be 0.9 mmol/L. In the test with Wistar rats [8] (control −0.1), the “Change in [serum] FFA” value was -0.3 mmol/L. Further, the “Change in Lactate” value in the test on Wistar rats [8] (heparinised whole blood, control 0.3) was determined as 0.02 mmol/L. For the same compound, in the test on Wistar rats [9] (CGRP 100 pmol/kg/min 1 h, CGRP-(8-37) 10 nmol/kg/min 90 minutes, control 0.8 ± 0.2), the “FFA content, Heart” value stood at 0.9 ± 0.2 µmol/g. Moreover, the “FFA content, Liver” value in the test on Wistar rats [9] (same infusions, control 0.1 ± 0.01) was found to be 0.06 ± 0.04 µmol/g. Also, the “FFA content, Soleus Muscle” value in the test with Wistar rats [9] (same infusions, control 0.2 ± 0.02) is 0.1 ± 0.02 µmol/g. For the same compound, the “FFA content, Kidney” value in the test on Wistar rats [9] (same infusions, control 0.8 ± 0.1) turned out to be 0.8 ± 0.1 µmol/g. Further, the “FFA content, Epi Adipose” value with Wistar rats [9] (same infusions, control 2.1 ± 0.5) is 2.2 ± 0.6 µmol/g. For the same compound, the “triglyceride content, Kidney” value with Wistar rats [9] (same infusions, control 2.8 ± 0.5) amounted to 2.5 ± 0.4 µmol/g. Also, in the test on Wistar rats [9] (same infusions, control 2.9 ± 0.4), the “triglyceride content, Heart” value came to 3.1 ± 0.4 µmol/g. Also, in the test with Wistar rats [9] (same infusions, control 3.7 ± 0.4), the “triglyceride content, Soleus Muscle” value is 4.3 ± 0.4 µmol/g. Moreover, the “triglyceride content, Liver” value in the test with Wistar rats [9] (same infusions, control 4.3 ± 0.3) was found to be 5.8 ± 0.4 µmol/g. Also, in the test with Wistar rats [9] (same infusions, control 5.1 ± 1.2), the “triglyceride content, Epi Adipose” value amounted to 4.9 ± 1 µmol/g.

Usually EC50 stands for the concentration needed to bring the measured effect to its halfway point.

Source of the values: patent publication US20040038861A1, “Methods and compositions for normalizing lipid levels in mammalian tissues” (priority 2001, published 2004).
